From US20050143472A1, “Novel treatment for pathologies associated with oxidative damage” (priority 2002, published 2005)

Key:
[1] = molecular target: T1, mPAO (Mus musculus, UniProt Q8C0L6); assay: HPLC analysis of PAO oxidation products; format: biochemical, murine
T1 construct: the full length cDNA of mpao was released by Nde I and Hind III treatment, and ligated into Nde I and Hind III sites of pET29c; made in house; host or cells: E. coli BL21 GOLD (DE3), plasmid pET-MPAO (pET29c)
Source text: In this example, methods are described for determining the nature of the products of substrate oxidation by PAO. In a solution at pH 7.6 containing catalase to destroy H2O2, mPAO and N^1-acetyl-Spm, at known concentrations, were allowed to react until the latter had been completely oxidized. mPAO and N^1-acetyl-Spd were similarly allowed to react. Both reactions solutions contained a known amount of N-(3-aminopropyl)-1,10-diaminodecane (Tocris Cookson) as an internal standard. […] Aliquots of these reaction mixtures were treated with dansyl chloride (5-dimethylamino-1-naphthalenesulfonyl chloride) obtained from Sigma. The resulting dansylated polyamine products from each reaction were analyzed by reverse-phase high-pressure liquid chromatography (HPLC) following established procedures (Hunter, Methods in Molecular Biology: Polyamine Protocols, Morgan (ed.) Human Press, Totowa, N.J., Vol. 79, Chapter 14, pp 119-123). […] Detection was accomplished with a Gilson Spetra/Glo fluorescence detector using a 7-51× excitation filter (330-400 nm) and a 3-72M emission filter (460-600 n m). […]
Aliquots of each of the above described enzyme-reaction solutions were treated with an equal volume of 2,4-dinitrophenylhydrazine (Acros Organics) solution (100 mg in 94 mL ethanol+6 mL of concentrated HCl). […] The 368-nm chromatograms were used for quantitative analyses.

[2] = molecular target: T1, mPAO; assay: Steady-state kinetic spectrophotometric assay of mPAO (H2O2 formation); format: biochemical, murine
Protocol: In this example the methods used to examine mPAO steady state kinetics are described. Spectrophotometric assays were done at 30° C. in a potassium phosphate buffer (e.g., 50 mM KH2PO4/KOH buffer, pH 7.6 saturated in air or in pure oxygen), using a published procedure which provides a continuous monitor of the H2O2 produced (Holt et al., Anal. Biochem. 244:384-392 [1997]). These assays were done in 1 mL cuvette with 0.8 mL of solution containing varying amounts of substrate, 1 mM vanillic acid, 0.5 mM 4-aminopyrine, 4 units of horseradish peroxidase, and 0.1-0.2 μg of mPAO. The reactions were monitored at 498 nm with a UVIKON 840 spectrophotometer (KONTRON Instruments) for the formation of the quinoneimine dye (ε498=4,650 M^−1cm^−1 at pH 7.6), the condensation product of vanillic acid and oxidized 4-aminopyrine. The latter is produced from 4-aminopyrine by the action of horseradish peroxidase that has been oxidized by H2O2 (Holt et al., supra [1997]). The assays were done at 25° C. by varying the concentration of the amine substrate, while the oxygen concentration in the assay solution was constant at the air-saturating level of 237 μM. The data were fit, by nonlinear regression to steady-state kinetic equations (McIntire et al., Biochem. J. 228:325-335 [1985]), which provided the values, and standard deviations thereof, for kcat′, KS′ and kcat′/KS′ (=Q, the specificity constant). [formula]
The dissociation constants, KD, for these and other amines were estimated in the following manner. It was assumed that the competition was competitive, since in the presence of the inhibitors, at a saturating N^1-acetyl-Spm concentration, the rate of the reaction was equal to the value of the true kcat. It was also assumed that the mechanism is of the ping-pong type. Thus, the applicable steady-state equation is (Segal, Enzyme Kinetics, John Wiley & Sons, New York, pp. 606-625 [1975]): [formula]
On the left, kcat and KS are the steady-state parameters for N^1-acetyl-Spm (S), and I and KI (=KD), represent the inhibitor and its inhibition constant, respectively. KIO and KO are the inhibition constant and Michaelis constant for O2, respectively. The equation can be converted to the expression on the right side when: [formula]
The expressions for kcat′ and KS′ (at the fixed [O2]=[…]) are the same as those when the inhibitor is absent. Since the values of kcat′ and KS″ were predetermined, inhibition assays were carried out where [S]≈KS″, which, in the absence of I, would give a rate, ν≈0.5×kcat″. In these assay, for each inhibitor, [I] was adjusted so the apparent rate was somewhat less then 0.5 kcat′. In this situation, after substitution and rearrangement, Equation 1 reduces to: [formula]
Since [I] and kcat′ are known, and ν is the measured rate in the presence of the inhibitor, the value of KI′ can be estimated. It is assumed that these apparent KI′ are good approximations of the true KI (=KD) values. […] The estimated KI′ values provided in Table 1, are the averages of these four values. If the reactions of the polyamine substrates and O2 with mPAO obeys a ping-pong type mechanism, the apparent values, kcat′/KS′, are equal to the true kcat/KS values.

T1 sequence (Q8C0L6 whole entry E184K/L285S/R416L/R417S/Q419R/E451A/V490I/S491G/V497A): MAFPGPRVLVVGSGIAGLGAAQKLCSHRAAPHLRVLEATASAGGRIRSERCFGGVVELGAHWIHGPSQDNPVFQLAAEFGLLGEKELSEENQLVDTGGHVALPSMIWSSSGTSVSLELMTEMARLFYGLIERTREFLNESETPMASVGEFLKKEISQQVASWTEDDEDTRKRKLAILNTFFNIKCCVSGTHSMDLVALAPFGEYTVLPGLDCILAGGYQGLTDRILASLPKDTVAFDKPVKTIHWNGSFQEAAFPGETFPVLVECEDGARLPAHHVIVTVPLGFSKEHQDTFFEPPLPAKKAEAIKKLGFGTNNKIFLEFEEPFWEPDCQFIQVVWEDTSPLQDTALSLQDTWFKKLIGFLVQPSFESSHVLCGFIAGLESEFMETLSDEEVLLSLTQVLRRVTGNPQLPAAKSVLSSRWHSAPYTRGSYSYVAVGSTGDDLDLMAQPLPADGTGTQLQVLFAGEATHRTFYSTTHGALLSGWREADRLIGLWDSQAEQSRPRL

## CC(=O)NCCCNCCCCNCCCN [N^1-acetyl-Spm, N^1-acetyl-spermine]
[1]; 2,4-dinitrophenylhydrazine HPLC
  3-acetamidopropanal produced on complete oxidation by PAO: equivalent amount
[1]; pH 7.6, catalase present, dansyl chloride HPLC
  polyamine product of complete PAO oxidation (Spd or putrescine): stoichiometric amounts
[2]; apparent value, air-saturated 50 mM KH2PO4/KOH buffer pH 7.6, [O2] 237 μM
  kcat′: 4.53 ± 0.05 s⁻¹
[2]; apparent value, air-saturated buffer pH 7.6, [O2] 237 μM
  KS′: 1.78 ± 0.1 µM
[2]; in words
  substrate for mPAO (oxidation by mPAO): good mPAO substrates
[2]; specificity constant, air-saturated buffer pH 7.6
  kcat′/KS′: (2.54 ± 0.01) × 10^6 M^−1sec^−1
